Data: ChEMBL document CHEMBL1201862, “PubChem BioAssay data set” (2004)
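Briefly, cells in 96-well plates were exposed to five compound concentrations for 48 h, and endpoints were estimated by linear interpolation. At the GI50, growth is halved.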 Activity calls are given as the source filed them. Cut-off read from the data, not from the text of the source: active = GI50 up to about 1.1 µM and inactive = higher. Residues, ends and D or L forms follow the SMILES beside them. *: point of attachment. Boc = CC(C)(C)OC(=O)*

How the values were obtained:
Test in all cases: NCI tumour cell line growth inhibition, 48 h
[1] = system: SR
[2] = system: SK-OV-3
[3] = system: SF-268
[4] = system: ACHN
[5] = system: HT-29
[6] = system: KM12
[7] = system: RPMI-8226
[8] = system: HL-60
[9] = system: A549
[10] = system: SF-295
[11] = system: UO-31
[12] = system: K562
[13] = system: HCC 2998
[14] = system: COLO 205
[15] = system: SK-MEL-28
[16] = system: M14
[17] = system: TK-10
[18] = system: MOLT-4
[19] = system: SF-539
[20] = system: 786-0

Measured: GI50

OCC1COc2cc(Cl)c(Cl)cc2O1 (stereo unspecified)
inactive: [1] > 10 µM | [2] > 10 µM | [3] > 10 µM | [4] > 10 µM | [5] > 10 µM | [6] > 10 µM | [7] > 10 µM | [8] > 10 µM | [9] > 10 µM | [10] > 10 µM | [11] > 10 µM | [12] > 10 µM | [13] > 10 µM | [14] > 10 µM | [15] > 10 µM | [16] > 10 µM | [17] > 10 µM | [18] > 10 µM | [19] > 10 µM

O=C1O/C(=C\c2ccc(O)cc2)C(c2ccc(O)c(Cl)c2)=C1Br
inactive: [1] 3.94 µM | [20] 13 µM | [2] 14 µM | [3] 13.7 µM | [4] 13.2 µM | [5] 16.4 µM | [6] 12.4 µM | [7] 10.6 µM | [8] 13.9 µM | [10] 14.5 µM | [11] 14.6 µM | [12] 2.25 µM | [13] 11.3 µM | [14] 19.3 µM | [15] 13.4 µM | [16] 13.6 µM | [17] 18.9 µM | [18] 11.7 µM | [19] 12 µM

N#CC(=S)Nc1ccc(F)cc1
inactive: [1] 40.6 µM | [20] 53.8 µM | [2] > 100 µM | [3] 96.8 µM | [4] 60 µM | [5] 67.8 µM | [6] 70.3 µM | [7] 8.22 µM | [8] 30.4 µM | [9] 33.6 µM | [10] 51.6 µM | [12] 23.9 µM | [13] 45.4 µM | [14] 22.4 µM | [15] 45.5 µM | [16] 54.3 µM | [17] 39.1 µM | [18] 31.3 µM | [19] 38.2 µM

COc1ccc(Br)c(CN2CCc3ccccc32)c1OS(=O)(=O)c1ccc(C)cc1
inactive: [1] 43.7 µM | [20] 23.7 µM | [3] 23.7 µM | [4] 14.7 µM | [6] 7.66 µM | [7] 26.3 µM | [8] 5.15 µM | [9] 8.17 µM | [10] 19.5 µM | [11] 51.2 µM | [12] 4.75 µM | [13] 6.31 µM | [14] 11.9 µM | [15] 46 µM | [16] 13.9 µM | [17] 8.02 µM | [18] 29.3 µM | [19] 15.6 µM

CC1CCC2C(C(=O)O[C@H]3C4CCO[C@@H](OC5OC(CO)C(O)C(O)C5O)C4[C@@]4(CO)O[C@@H]34)=CO[C@@H](OC3OC(CO)C(O)C(O)C3O)C12 (stereo partly specified)
inactive: [1] > 10 µM | [20] > 10 µM | [2] > 10 µM | [3] > 10 µM | [4] > 10 µM | [5] > 10 µM | [6] > 10 µM | [7] > 10 µM | [8] > 10 µM | [9] > 10 µM | [10] > 10 µM | [11] > 10 µM | [12] > 10 µM | [13] > 10 µM | [15] > 10 µM | [16] > 10 µM | [17] > 10 µM | [18] > 10 µM | [19] > 10 µM

CC(NC(=O)C(NC(=O)OC(C)(C)C)C(C)C)C(=O)N1CCCC1C(=O)NCC(=O)NC(C(=O)NCC(=O)O)C(C)C (stereo unspecified) (Boc-VAPGVG-OH; configuration not given here)
inactive: [1] > 100 µM | [20] > 100 µM | [2] > 100 µM | [3] > 100 µM | [4] > 100 µM | [5] > 100 µM | [7] > 100 µM | [8] > 100 µM | [10] > 100 µM | [11] > 100 µM | [12] > 100 µM | [13] 77.3 µM | [14] > 100 µM | [15] > 100 µM | [16] > 100 µM | [17] > 100 µM | [18] > 100 µM | [19] > 100 µM

CCOc1cc(C=O)ccc1O [ETHYL VANILLIN]
inactive: [1] 76 µM | [20] > 100 µM | [3] > 100 µM | [4] > 100 µM | [5] > 100 µM | [6] > 100 µM | [7] > 100 µM | [8] > 100 µM | [9] > 100 µM | [10] > 100 µM | [11] > 100 µM | [12] > 100 µM | [13] > 100 µM | [14] > 100 µM | [15] > 100 µM | [16] > 100 µM | [17] > 100 µM | [18] > 100 µM | [19] > 100 µM
